# Laboratory results reported in patent US8288342B2, “Methods for treating vasomotor symptoms in castrated prostatic cancer patients with low dose cyproterone acetate” (priority 2008, dated 2012).
# Experiments:
# [1] = system: hot flashes following surgical or medical castration of prostate cancer patients; test: Randomized, multicenter, placebo-controlled Phase 2 trial of CPA 5, 15, 25 mg/day: hot flash efficacy; type: in vivo, human; details: for Reduction in average severity of moderate to severe hot flashes compared to placebo (positive) / Reduction in weekly average severity of hot flashes compared to placebo (Table 7 analysis, positive) / LS Mean Change in Weekly Average Severity of All Hot Flashes / LS Mean Change in Weekly Average Severity of Moderate to Severe Hot Flashes: 4-point scale; for Fewer weekly moderate to severe hot flashes compared to placebo (reduction, positive): baseline to end-of-treatment
# Text: The inclusion criteria included male (>18 years) prostate cancer patients who have undergone bilateral orchiectomy or have used or are using LHRH analogue drug([…]®, Aberelix®), and have complained of bothersome hot flashes as defined by the occurrence of at least 3 moderate to severe hot flashes per day or 21 per week at baseline. Hot flashes were present for at least 1 month prior to study entry. […] A total of 121 clinical sites in the United States and Canada participated in this Phase 2 study with 77 sites enrolling at least one subject. The overall study duration for each subject was approximately 19 weeks, which included a screening period of up to 4 weeks, a one-week placebo run-in period, a 12-week double-blind period, and a follow-up telephone call two weeks after the last dose of study medication. After providing informed consent on the first day of the screening period, all subjects had medical and hot flash history recorded, a physical examination, a chest x-ray and Doppler to assess known thromboembolic risk factors, an ECG to evaluate cardiac risks, and clinical laboratory evaluations. Once all results of tests conducted during the screening period were obtained, subjects who met all of the inclusion criteria and none of the exclusion criteria were eligible to enter the one-week, single-blind, placebo run-in period. […] CPA 5, 15, or 25 mg/day or placebo. After beginning study medication, subjects returned for study visits at weeks 2, 4, 8, and 12. Two weeks after the final treatment visit, a telephone follow-up call was conducted to record and evaluate adverse events (“AE”s) since the last study visit. Each subject received one tablet daily, which was administered orally. All tablets were blinded and identical in appearance. The formulation used in this study was an immediate release product containing 5, 15, or 25 mg of CPA. The CPA tablets are described in Example 1. The dosage form for the CPA used in this study was an identical, blind, modified oval, scored, immediate release oral tablet for each strength, consisting of cyproterone acetate, lactose, microcrystalline cellulose, crospovidone, sodium lauryl sulfate, silicon dioxide, magnesium stearate, and stearic acid. Placebo tablets included the same constituents but without CPA and were identical in appearance to the active tablets. During the single-blind placebo run-in period, subjects received one medication bottle containing a one week+2 day supply (9 tablets total) of single-blind placebo tablets and a copy of the Subject Information Sheet. Subjects were instructed to take one tablet each morning by mouth, preferably with a meal, at approximately the same time each day. Subjects were not made aware that they were receiving placebo. Following randomization at Visit 2, all enrolled and eligible subjects were randomized equally to one of four treatment groups (CPA 5, 15, 25 mg, or placebo) and received the study medication on the same day. At treatment visits 0, 4, and 8 weeks following initiation, each subject received one medication bottle containing a one-month supply+7 (35 tablets total) of double-blind […] tablets and a copy of the Subject Information Sheet. Subjects were instructed to take one tablet each morning by mouth, preferably with a meal, at approximately the same time each day. This study was designed to evaluate three doses of CPA (5 mg, 15 mg, and 25 mg) for the treatment of hot flashes in prostate cancer patients. Observation of a reduction in the frequency and severity of hot flashes was considered a reasonable and reliable indicator of the efficacy of active treatment. The primary measure of efficacy was the change in weekly frequency and weekly average severity of moderate to severe hot flashes from the placebo run-in period to the final week of treatment. […]
# [2] = system: hot flashes in castrated prostatic cancer patients; test: Prior study of 50 mg and 100 mg CPA: hot flash efficacy; type: in vivo, human; details: N 236
# Protocol: The results of this study were compared with results from a prior study in which the efficacy of 50 mg and 100 mg of CPA was investigated. Efficacy data for the 50 mg and 100 mg studies showing a reduction in average daily number of moderate to severe hot flashes, and a reduction in average severity of hot flashes is shown in FIGS. 6 and 7, respectively. A comparison of the percent of patients with complete disappearance of all hot flashes at 12 weeks of treatment across studies is shown in Table 10.
# [3] = system: post-orchiectomy hot flashes in prostate cancer subjects; details: CPA 300 mg daily, 3 weeks, 12 post-orchiectomy subjects; cited from earlier work
# [4] = over 2500 patients, long-term use; men 100 to 200 or more than 200 mg/day; cited from earlier work
# hot flashes = details: 37 subjects with bothersome hot flashes; cited from earlier work
# [5] = system: quality of life of prostate cancer patients; details: 367 evaluable patients; oral and i.m., doses varied; cited from earlier work
# [6] = all three treatment groups (5, 15, 25 mg/day)
compound,measurement,setting,value
"CC(=O)O[C@]1(C(C)=O)CC[C@H]2[C@@H]3C=C(Cl)C4=CC(=O)[C@@H]5C[C@@H]5[C@]4(C)[C@H]3CC[C@@]21C [CPA, cyproterone acetate]",% With Complete Disappearance of All Hot Flashes at 12 Weeks/End-of-Treatment,"[1]; CPA 5 mg, N 80",27.5%
same,Proportion of subjects with total elimination of moderate to severe hot flashes (Yes),[1]; CPA 5 mg/day,27.27%
same,Proportion of subjects without total elimination of moderate to severe hot flashes (No),[1]; CPA 5 mg/day,72.73%
same,Reduction in average frequency of all hot flashes compared to placebo (positive),[1]; CPA 5 mg/day,27.73 units
same,"Subjects without total elimination of moderate to severe hot flashes (No), number",[1]; CPA 5 mg/day,56
same,LS Mean Change in Total Weekly Moderate to Severe Hot Flash Frequency,"[1]; CPA 5 mg/day oral, Baseline (Day 0) to End-of-Treatment (Day 84)",−40.47
same,"Subjects with total elimination of moderate to severe hot flashes (Yes), number","[1]; CPA 5 mg/day, out of 77",21
same,Reduction in average severity of moderate to severe hot flashes compared to placebo (positive),[1]; CPA 5 mg/day,0.86 units
same,"Reduction in weekly average severity of hot flashes compared to placebo (Table 7 analysis, positive)",[1]; CPA 5 mg/day,0.60 units
same,Difference from placebo in change of Total Weekly Moderate to Severe Hot Flash Frequency,"[1]; CPA 5 mg/day, Day 0 to Day 84",−23.08
same,Difference from placebo in change of Weekly Average Frequency of All Hot Flashes,"[1]; CPA 5 mg/day, Day 0 to Day 84",−27.73
same,Difference from placebo in change of Weekly Average Severity of All Hot Flashes,"[1]; CPA 5 mg/day, Day 0 to Day 84",−0.6
same,Difference from placebo in change of Weekly Average Severity of Moderate to Severe Hot Flashes,"[1]; CPA 5 mg/day, Day 0 to Day 84",−0.86
same,LS Mean Change in Weekly Average Frequency of All Hot Flashes,"[1]; CPA 5 mg/day, Day 0 to Day 84",−50.67
same,LS Mean Change in Weekly Average Severity of All Hot Flashes,"[1]; CPA 5 mg/day, Day 0 to Day 84",−0.76
same,LS Mean Change in Weekly Average Severity of Moderate to Severe Hot Flashes,"[1]; CPA 5 mg/day, Day 0 to Day 84",−1.06
same,"Fewer weekly moderate to severe hot flashes compared to placebo (reduction, positive)",[1]; CPA 5 mg/day,23.08
same,% With Complete Disappearance of All Hot Flashes at 12 Weeks/End-of-Treatment,"[1]; CPA 15 mg, N 96",32.3%
same,Proportion of subjects with total elimination of moderate to severe hot flashes (Yes),[1]; CPA 15 mg/day,32.63%
same,Proportion of subjects without total elimination of moderate to severe hot flashes (No),[1]; CPA 15 mg/day,67.37%
same,Reduction in average frequency of all hot flashes compared to placebo (positive),[1]; CPA 15 mg/day,32.69 units
same,"Subjects without total elimination of moderate to severe hot flashes (No), number",[1]; CPA 15 mg/day,64
same,LS Mean Change in Total Weekly Moderate to Severe Hot Flash Frequency,"[1]; CPA 15 mg/day oral, Day 0 to Day 84",−45.05
same,"Subjects with total elimination of moderate to severe hot flashes (Yes), number","[1]; CPA 15 mg/day, out of 95",31
same,Reduction in average severity of moderate to severe hot flashes compared to placebo (positive),[1]; CPA 15 mg/day,1.13 units
same,"Reduction in weekly average severity of hot flashes compared to placebo (Table 7 analysis, positive)",[1]; CPA 15 mg/day,0.78 units
same,Difference from placebo in change of Total Weekly Moderate to Severe Hot Flash Frequency,"[1]; CPA 15 mg/day, Day 0 to Day 84",−27.66
same,Difference from placebo in change of Weekly Average Frequency of All Hot Flashes,"[1]; CPA 15 mg/day, Day 0 to Day 84",−32.69
same,Difference from placebo in change of Weekly Average Severity of All Hot Flashes,"[1]; CPA 15 mg/day, Day 0 to Day 84",−0.78
same,Difference from placebo in change of Weekly Average Severity of Moderate to Severe Hot Flashes,"[1]; CPA 15 mg/day, Day 0 to Day 84",−1.13
same,LS Mean Change in Weekly Average Frequency of All Hot Flashes,"[1]; CPA 15 mg/day, Day 0 to Day 84",−55.63
same,LS Mean Change in Weekly Average Severity of All Hot Flashes,"[1]; CPA 15 mg/day, Day 0 to Day 84",−0.94
same,LS Mean Change in Weekly Average Severity of Moderate to Severe Hot Flashes,"[1]; CPA 15 mg/day, Day 0 to Day 84",−1.33
same,"Fewer weekly moderate to severe hot flashes compared to placebo (reduction, positive)",[1]; CPA 15 mg/day,27.66
same,% With Complete Disappearance of All Hot Flashes at 12 Weeks/End-of-Treatment,"[1]; CPA 25 mg, N 86",36.1%
same,Proportion of subjects with total elimination of moderate to severe hot flashes (Yes),[1]; CPA 25 mg/day,36.05%
same,Proportion of subjects without total elimination of moderate to severe hot flashes (No),[1]; CPA 25 mg/day,63.95%
same,Reduction in average frequency of all hot flashes compared to placebo (positive),[1]; CPA 25 mg/day,33.93 units
same,"Subjects without total elimination of moderate to severe hot flashes (No), number",[1]; CPA 25 mg/day,55
same,LS Mean Change in Total Weekly Moderate to Severe Hot Flash Frequency,"[1]; CPA 25 mg/day oral, Day 0 to Day 84",−46.14
same,"Subjects with total elimination of moderate to severe hot flashes (Yes), number","[1]; CPA 25 mg/day, out of 86",31
same,Reduction in average severity of moderate to severe hot flashes compared to placebo (positive),[1]; CPA 25 mg/day,0.94 units
same,"Reduction in weekly average severity of hot flashes compared to placebo (Table 7 analysis, positive)",[1]; CPA 25 mg/day,0.77 units
same,Difference from placebo in change of Total Weekly Moderate to Severe Hot Flash Frequency,"[1]; CPA 25 mg/day, Day 0 to Day 84",−28.75
same,Difference from placebo in change of Weekly Average Frequency of All Hot Flashes,"[1]; CPA 25 mg/day, Day 0 to Day 84",−33.93
same,Difference from placebo in change of Weekly Average Severity of All Hot Flashes,"[1]; CPA 25 mg/day, Day 0 to Day 84",−0.77
same,Difference from placebo in change of Weekly Average Severity of Moderate to Severe Hot Flashes,"[1]; CPA 25 mg/day, Day 0 to Day 84",−0.94
same,LS Mean Change in Weekly Average Frequency of All Hot Flashes,"[1]; CPA 25 mg/day, Day 0 to Day 84",−56.87
same,LS Mean Change in Weekly Average Severity of All Hot Flashes,"[1]; CPA 25 mg/day, Day 0 to Day 84",−0.93
same,LS Mean Change in Weekly Average Severity of Moderate to Severe Hot Flashes,"[1]; CPA 25 mg/day, Day 0 to Day 84",−1.14
same,"Fewer weekly moderate to severe hot flashes compared to placebo (reduction, positive)",[1]; CPA 25 mg/day,28.75
same,"Treating all hot flashes, including mild, moderate, and severe","[1]; all three doses (5, 15, 25 mg/day)",effective
same,Total weekly frequency of moderate to severe hot flashes over placebo,[1]; [6],statistically significant reduction
same,Weekly average frequency of all hot flashes over placebo,[1]; [6],statistically significant reduction
same,Weekly average severity of all hot flashes over placebo,[1]; [6],statistically significant reduction
same,Weekly average severity of moderate to severe hot flashes over placebo,[1]; [6],statistically significant reduction
same,% With Complete Disappearance of All Hot Flashes at 12 Weeks/End-of-Treatment,[2]; CPA 50 mg,38.5%
same,% With Complete Disappearance of All Hot Flashes at 12 Weeks/End-of-Treatment,[2]; CPA 100 mg,46.0%
same,Frequency of hot flashes,[3],significantly reduced
same,Correlation between duration of CPA treatment and prevalence of liver enzyme elevations,[4],No correlation was found
same,Therapeutic efficacy: reduction in hot flashes,hot flashes,80%
same,Evaluable patients with general improvement in subjective assessment of quality of life,[5],70%
